Laboratory results: US20260317324A1, “BIFUNCTIONAL COMPOUNDS FOR DEGRADING BRAF VIA UBIQUITIN PROTEOSOME PATHWAY” (Nurix Therapeutics, Inc., priority 2023, published 2026)

Tests used:
Format in all cases: cell-based
BRAF D594G = target: T1, BRAF D594G (Homo sapiens, UniProt P15056, D594G); experiment: BRAF HiBiT degradation assay, C-terminal HiBiT-tagged BRAF D594G overexpressed in HCT-116 BRAF−/− cells (clone 63), Nano-Glo HiBiT Lytic assay
T1 construct: Horizon Discovery (HCT-116 BRAF−/− cells); host or cells: HCT-116 BRAF−/− cells, clone 63, lentiviral transduction
T1 sequence (P15056 whole entry D594G): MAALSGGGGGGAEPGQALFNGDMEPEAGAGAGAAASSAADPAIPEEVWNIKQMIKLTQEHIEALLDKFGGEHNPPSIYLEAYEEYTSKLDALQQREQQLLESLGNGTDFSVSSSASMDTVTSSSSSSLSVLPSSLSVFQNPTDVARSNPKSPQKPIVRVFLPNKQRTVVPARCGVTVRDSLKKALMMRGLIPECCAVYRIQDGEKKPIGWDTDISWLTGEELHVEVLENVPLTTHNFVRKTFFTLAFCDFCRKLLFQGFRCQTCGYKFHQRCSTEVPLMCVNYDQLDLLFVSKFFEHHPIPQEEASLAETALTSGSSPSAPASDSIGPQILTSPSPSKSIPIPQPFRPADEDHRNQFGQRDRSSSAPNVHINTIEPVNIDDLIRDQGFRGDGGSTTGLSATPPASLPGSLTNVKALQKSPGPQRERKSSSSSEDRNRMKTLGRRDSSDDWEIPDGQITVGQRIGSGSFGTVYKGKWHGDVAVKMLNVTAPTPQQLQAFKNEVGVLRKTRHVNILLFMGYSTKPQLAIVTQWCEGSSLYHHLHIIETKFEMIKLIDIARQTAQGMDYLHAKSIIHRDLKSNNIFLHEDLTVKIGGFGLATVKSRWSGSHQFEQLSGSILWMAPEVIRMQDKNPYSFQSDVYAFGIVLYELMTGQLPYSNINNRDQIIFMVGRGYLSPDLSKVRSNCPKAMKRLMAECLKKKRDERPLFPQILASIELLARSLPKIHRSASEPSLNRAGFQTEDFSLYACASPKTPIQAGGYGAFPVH
From the text: (§1) An A375 cell line expressing a homozygous V600E mutation was purchased from ATCC (Manassas, VA, USA). An A375 clone 1F10 cell line with an endogenous C-terminal HiBiT fusion tag on BRAF V600E allele was generated internally using CRISPR-Cas9 technology and cultured in DMEM, high glucose supplemented with 10% FBS and 1× GlutaMAX. A HCT-116 BRAF−/− cell line overexpressing the C-terminal HiBiT-tagged G466V, G469A, and D594G mutants were generated by lentiviral transduction, externally at Biosettia Inc (San Diego, CA, USA). The stably transfected cells were cultured in RPMI media supplemented with 10% FBS, 1× GlutaMAX, and 0.25 μg/ml puromycin. DMEM medium, RPMI 1640 medium, GlutaMAX, fetal bovine serum (FBS), and puromycin were purchased from Gibco (Grand Island, NY, USA). HCT-116 BRAF−/− cells were purchased from Horizon Discovery (Waterbeach, UK).
(§2) The C-terminal HiBiT tagged mutant BRAF G466V, G469A, and D594G overexpressed in HCT-116 BRAF−/− cells (monoclonal cell line, cell clones 8, 34, and 63, respectively) were seeded at the density of 3,000 cells/well in 30 μL media (RPMI supplemented with 10% FBS and 1× GlutaMAX) in white opaque 384-well plates (Corning #3570) from column 1 to column 23. Wildtype HCT-116 BRAF cells were seeded in column 24 at the same cell density in 30 μL media. Cells were incubated at 37° C. with 5% CO2 for 24 h.
(§3) Intermediate compound dilution series (5-point, ranging from 5 mM to 0.5 μM, 10-fold dilutions in DMSO) were prepared in a source plate (Beckman Coulter cat. no. 001-16128). Final compound dilution series (11-point, ranging from 1 μM to 0.01 nM, half-log dilutions in DMSO) were stamped into the assay plate (Corning #3570, column 1-11 and 12-22) using the Echo Acoustic Liquid Handler (Beckman Coulter). Each compound was plated in duplicate, and the total volume of compound DMSO solution was 60 nL/well (0.2% final DMSO concentration). DMSO was included in wells A23-L23 and A24-L24. The DMSO-treated HiBiT-tagged samples served as Negative Control (NC) and the DMSO-treated wildtype samples served as Background Control (BC) for the HiBiT assay.
(§4) HiBiT signal was measured by a Nano-Glo HiBiT Lytic assay (Promega cat. no. N3050). HiBiT lytic detection reagent (Nano-Glo HiBiT Lytic Buffer with 1:50 Nano-Glo HiBiT Lytic Substrate and 1:100 LgBiT Protein, 40 μL) was added using Bravo. The mixture was incubated at room temperature, in the dark, and with gentle shaking for 10 min. Luminesce units (LU) were read on an EnVision plate reader 2105 (Perkin Elmer).
(§5) Percent protein remaining and viability remaining per sample were calculated as follows: […]
(§6) % Protein remaining values were plotted as a function of compound concentration. XC50 (DC50) values were determined by fitting curves using the following equation:
(§7) For the HiBiT degradation assay, the key parameters reported include: • The dose of compound that produces 50% degradation (DC50 at 50%): • DC50 at 50%: the Fitted X value (Conc.) at Y=50 (response) • Observed Dmax (Obs. Dmax) is the percentage protein degraded at maximal compound effect relative to DMSO-treated control: […]

BRAF G466V = target: T2, BRAF G466V (Homo sapiens, UniProt P15056, G466V); experiment: BRAF HiBiT degradation assay, C-terminal HiBiT-tagged BRAF G466V overexpressed in HCT-116 BRAF−/− cells (clone 8), Nano-Glo HiBiT Lytic assay
T2 construct: Horizon Discovery (HCT-116 BRAF−/− cells); host or cells: HCT-116 BRAF−/− cells, clone 8, lentiviral transduction
T2 sequence (P15056 whole entry G466V): as the sequence (P15056 whole entry D594G) above, with G466V, G594D counted along it
From the text: as §1, §2, §3, §4, §5, §6, §7

BRAF V600E = target: T3, BRAF V600E (Homo sapiens, UniProt P15056, V600E); experiment: BRAF HiBiT degradation assay, C-terminal HiBiT-tagged BRAF V600E A375 cells (clone 1F10), Nano-Glo HiBiT Lytic assay; conditions: for Dmax: A-375
T3 construct: endogenous C-terminal HiBiT fusion tag on BRAF V600E allele; endogenous in cells; host or cells: A375 clone 1F10 (CRISPR-Cas9 knock-in of the HiBiT tag; parental A375 from ATCC)
T3 sequence (P15056 whole entry V600E, the tested form may be a part): as the sequence (P15056 whole entry D594G) above, with G594D, V600E counted along it
Outline: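 Using CRISPR-engineered A375 cells that carry a C-terminal HiBiT tag on endogenous BRAF V600E, remaining protein was quantified by lytic luminescence relative to DMSO-treated cells, with wildtype A375 as the background control. DC50 denotes the concentration giving 50% degradation.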

BRAF G469A = target: T4, BRAF G469A (Homo sapiens, UniProt P15056, G469A); experiment: BRAF HiBiT degradation assay, C-terminal HiBiT-tagged BRAF G469A overexpressed in HCT-116 BRAF−/− cells (clone 34), Nano-Glo HiBiT Lytic assay
T4 construct: Horizon Discovery (HCT-116 BRAF−/− cells); host or cells: HCT-116 BRAF−/− cells, clone 34, lentiviral transduction
T4 sequence (P15056 whole entry G469A): as the sequence (P15056 whole entry D594G) above, with G469A, G594D counted along it
From the text: as §1, §2, §3, §4, §5, §6, §7

[1] = BRAF D594G, DC50 at 50%: fitted conc. at Y=50
[2] = HCT-116, BRAF D594G, percentage protein degraded at maximal compound effect relative to DMSO
[3] = BRAF G466V, DC50 at 50%: fitted conc. at Y=50
[4] = HCT-116, BRAF G466V, percentage protein degraded at maximal compound effect relative to DMSO
[5] = A375 (BRAF V600E), DC50 at 50%: fitted conc. at Y=50
[6] = A375 (BRAF V600E), percentage protein degraded at maximal compound effect relative to DMSO
[7] = Class 2, BRAF G469A, DC50 at 50%: fitted conc. at Y=50
[8] = HCT-116, Class 2, BRAF G469A, percentage protein degraded at maximal compound effect relative to DMSO

Structure (SMILES) | DC50 (BRAF D594G; [1]) [nM] | Dmax (BRAF D594G; [2]) [%] | DC50 (BRAF G466V; [3]) [nM] | Dmax (BRAF G466V; [4]) [%] | DC50 (BRAF V600E; [5]) [nM] | Dmax (BRAF V600E; [6]) [%] | DC50 (BRAF G469A; [7]) [nM] | Dmax (BRAF G469A; [8]) [%] | DC50 (BRAF D594G; BRAF D594G (Class 3), HCT-116 BRAF−/− cells, DC50 at 50% degradation) [nM] | Dmax (BRAF D594G; BRAF D594G (Class 3), HCT-116 BRAF−/− cells, observed Dmax relative to DMSO control) [%] | DC50 (BRAF G466V; BRAF G466V (Class 3), HCT-116 BRAF−/− cells, DC50 at 50% degradation) [nM] | Dmax (BRAF G466V; BRAF G466V (Class 3), HCT-116 BRAF−/− cells, observed Dmax relative to DMSO control) [%] | DC50 (BRAF V600E; A375 (BRAF V600E, Class 1), DC50 at 50% degradation) [nM] | Dmax (BRAF V600E; A375 (BRAF V600E, Class 1), observed Dmax, % protein degraded relative to DMSO control) [%] | DC50 (BRAF G469A; BRAF G469A (Class 2), HCT-116 BRAF−/− cells, DC50 at 50% degradation) [nM] | Dmax (BRAF G469A; BRAF G469A (Class 2), HCT-116 BRAF−/− cells, observed Dmax relative to DMSO control) [%]
CCCS(=O)(=O)Nc1cccc(-c2nc(C(C)(C)C)sc2-c2ccnc(Nc3cnn(CC4CCN(C(=O)C[C@@H]5CCN(c6ccc(C7CCC(=O)NC7=O)cc6)C5)CC4)c3)n2)c1F (mixture of isomers) [Compound 112, N-(3-{2-tert-butyl-5-[2-({1-[(1-{2-[(3S)-1-{4-[(3RS)-2,6-dioxopiperidin-3-yl]phenyl}pyrrolidin-3-yl]acetyl}piperidin-4-yl)methyl]-1H-pyrazol-4-yl}amino)pyrimidin-4-yl]-1,3-thiazol-4-yl}-2-fluorophenyl)propane-1-sulfonamide] | > 500 | 30 to 70 | > 500 | < 30 | < 10 | 30 to 70 | > 500 | < 30 | – | – | – | – | – | – | – | –
CCCS(=O)(=O)Nc1cccc(-c2nc(C(C)(C)C)sc2-c2ccnc(Nc3ccc(C4CCN(C(=O)[C@@H]5CCN(c6ccc(C7CCC(=O)NC7=O)cn6)C5)CC4)cc3)n2)c1F (mixture of isomers) [Compound 164, N-[3-(2-tert-butyl-5-{2-[(4-{1-[(3R)-1-{5-[(3RS)-2,6-dioxopiperidin-3-yl]pyridin-2-yl}pyrrolidine-3-carbonyl]piperidin-4-yl}phenyl)amino]pyrimidin-4-yl}-1,3-thiazol-4-yl)-2-fluorophenyl]propane-1-sulfonamide] | > 500 | 30 to 70 | > 500 | 30 to 70 | < 10 | > 70 | > 500 | < 30 | – | – | – | – | – | – | – | –
CCCS(=O)(=O)Nc1cccc(-c2nc(C(C)(C)C)sc2-c2ccnc(Nc3ccc(C4CCN(CC[C@H]5CCN(c6ccc(C7CCC(=O)NC7=O)cn6)C5)CC4)cc3)n2)c1F (mixture of isomers) [Compound 173, N-{3-[2-tert-butyl-5-(2-{[4-(1-{2-[(3S)-1-{5-[(3RS)-2,6-dioxopiperidin-3-yl]pyridin-2-yl}pyrrolidin-3-yl]ethyl}piperidin-4-yl)phenyl]amino}pyrimidin-4-yl)-1,3-thiazol-4-yl]-2-fluorophenyl}propane-1-sulfonamide] | > 500 | 30 to 70 | > 500 | 30 to 70 | 10 to 50 | > 70 | > 500 | < 30 | – | – | – | – | – | – | – | –

Other lines, results leading:

DC50 (BRAF D594G; [1]) [nM] | Dmax (BRAF D594G; [2]) [%] | DC50 (BRAF G466V; [3]) [nM] | Dmax (BRAF G466V; [4]) [%] | DC50 (BRAF V600E; [5]) [nM] | Dmax (BRAF V600E; [6]) [%] | DC50 (BRAF G469A; [7]) [nM] | Dmax (BRAF G469A; [8]) [%] | DC50 (BRAF D594G; BRAF D594G (Class 3), HCT-116 BRAF−/− cells, DC50 at 50% degradation) [nM] | Dmax (BRAF D594G; BRAF D594G (Class 3), HCT-116 BRAF−/− cells, observed Dmax relative to DMSO control) [%] | DC50 (BRAF G466V; BRAF G466V (Class 3), HCT-116 BRAF−/− cells, DC50 at 50% degradation) [nM] | Dmax (BRAF G466V; BRAF G466V (Class 3), HCT-116 BRAF−/− cells, observed Dmax relative to DMSO control) [%] | DC50 (BRAF V600E; A375 (BRAF V600E, Class 1), DC50 at 50% degradation) [nM] | Dmax (BRAF V600E; A375 (BRAF V600E, Class 1), observed Dmax, % protein degraded relative to DMSO control) [%] | DC50 (BRAF G469A; BRAF G469A (Class 2), HCT-116 BRAF−/− cells, DC50 at 50% degradation) [nM] | Dmax (BRAF G469A; BRAF G469A (Class 2), HCT-116 BRAF−/− cells, observed Dmax relative to DMSO control) [%] | Structure (SMILES)
> 500 | 30 to 70 | > 500 | < 30 | 10 to 50 | > 70 | > 500 | < 30 | – | – | – | – | – | – | – | – | CCCS(=O)(=O)Nc1cccc(-c2nc(C(C)(C)C)sc2-c2ccnc(Nc3cnn(CC4CCN(C(=O)[C@@H]5CCN(c6ccc(C7CCC(=O)NC7=O)cn6)C5)CC4)c3)n2)c1F (mixture of isomers) [Compound 114, N-{3-[2-tert-butyl-5-(2-{[1-({1-[(3R)-1-{5-[(3RS)-2,6-dioxopiperidin-3-yl]pyridin-2-yl}pyrrolidine-3-carbonyl]piperidin-4-yl}methyl)-1H-pyrazol-4-yl]amino}pyrimidin-4-yl)-1,3-thiazol-4-yl]-2-fluorophenyl}propane-1-sulfonamide]
> 500 | < 30 | > 500 | < 30 | 10 to 50 | 30 to 70 | > 500 | < 30 | – | – | – | – | – | – | – | – | CCCS(=O)(=O)Nc1cccc(-c2nc(C(C)(C)C)sc2-c2ccnc(Nc3ccc(C4CCN(C(=O)C[C@H]5CCN(c6ccc(C7CCC(=O)NC7=O)cc6)C5)CC4)cc3)n2)c1F (mixture of isomers) [Compound 165, N-{3-[2-tert-butyl-5-(2-{[4-(1-{2-[(3R)-1-{4-[(3RS)-2,6-dioxopiperidin-3-yl]phenyl}pyrrolidin-3-yl]acetyl}piperidin-4-yl)phenyl]amino}pyrimidin-4-yl)-1,3-thiazol-4-yl]-2-fluorophenyl}propane-1-sulfonamide]
< 10 | 30 to 70 | < 10 | 30 to 70 | < 10 | > 70 | 10 to 50 | 30 to 70 | – | – | – | – | – | – | – | – | CCCS(=O)(=O)Nc1cccc(-c2nc(C3CCN(C(=O)C4CCN(C(=O)C5CCN(c6ccc(C7CCC(=O)NC7=O)cn6)CC5)CC4)CC3)sc2-c2ccnc(N[C@H](C)CO)n2)c1F (mixture of isomers) [Compound 180, N-[3-(2-{1-[1-(1-{5-[(3RS)-2,6-dioxopiperidin-3-yl]pyridin-2-yl}piperidine-4-carbonyl)piperidine-4-carbonyl]piperidin-4-yl}-5-(2-{[(2R)-1-hydroxypropan-2-yl]amino}pyrimidin-4-yl)-1,3-thiazol-4-yl)-2-fluorophenyl]propane-1-sulfonamide]
– | – | – | – | – | – | – | – | > 500 | < 30 | > 500 | < 30 | 10 to 50 | 30 to 70 | > 500 | < 30 | CCCS(=O)(=O)Nc1cccc(-c2nc(C3CCC4(CC3)CCN(CC[C@H]3CCN(c5ccc(C6CCC(=O)NC6=O)cn5)C3)CC4)sc2-c2ccnc(N)n2)c1F (mixture of isomers) [Compound 259, N-{3-[5-(2-aminopyrimidin-4-yl)-2-(3-{2-[(3S)-1-{5-[(3RS)-2,6-dioxopiperidin-3-yl]pyridin-2-yl}pyrrolidin-3-yl]ethyl}-3-azaspiro[5.5]undecan-9-yl)-1,3-thiazol-4-yl]-2-fluorophenyl}propane-1-sulfonamide]
